Where “and” joins values, the source holds several entries; their conditions need not be identical. Identical values can stand only once.
Legend:
Interstitial collagenase = molecular target: T1, Interstitial collagenase (Homo sapiens, UniProt P03956); experiment: In vitro inhibition of human Matrix metalloprotease-1.
T1 sequence (P03956 whole entry): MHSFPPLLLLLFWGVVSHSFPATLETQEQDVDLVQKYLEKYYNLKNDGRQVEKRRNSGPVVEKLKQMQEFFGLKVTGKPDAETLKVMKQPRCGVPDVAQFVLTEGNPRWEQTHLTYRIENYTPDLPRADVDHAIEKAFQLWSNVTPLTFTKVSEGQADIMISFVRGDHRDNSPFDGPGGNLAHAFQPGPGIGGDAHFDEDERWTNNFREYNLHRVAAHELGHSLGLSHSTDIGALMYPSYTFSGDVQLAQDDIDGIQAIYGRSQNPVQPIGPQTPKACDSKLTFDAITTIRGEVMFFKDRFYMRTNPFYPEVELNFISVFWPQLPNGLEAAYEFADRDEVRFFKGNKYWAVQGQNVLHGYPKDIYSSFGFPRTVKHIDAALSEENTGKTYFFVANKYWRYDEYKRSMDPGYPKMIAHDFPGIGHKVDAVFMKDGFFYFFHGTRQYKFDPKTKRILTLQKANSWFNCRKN

[1] = molecular target: 72 kDa type IV collagenase (Homo sapiens, UniProt P08253); experiment: In vitro inhibition of human Matrix metalloprotease-2.
Chain of 72 kDa type IV collagenase (P08253 whole entry): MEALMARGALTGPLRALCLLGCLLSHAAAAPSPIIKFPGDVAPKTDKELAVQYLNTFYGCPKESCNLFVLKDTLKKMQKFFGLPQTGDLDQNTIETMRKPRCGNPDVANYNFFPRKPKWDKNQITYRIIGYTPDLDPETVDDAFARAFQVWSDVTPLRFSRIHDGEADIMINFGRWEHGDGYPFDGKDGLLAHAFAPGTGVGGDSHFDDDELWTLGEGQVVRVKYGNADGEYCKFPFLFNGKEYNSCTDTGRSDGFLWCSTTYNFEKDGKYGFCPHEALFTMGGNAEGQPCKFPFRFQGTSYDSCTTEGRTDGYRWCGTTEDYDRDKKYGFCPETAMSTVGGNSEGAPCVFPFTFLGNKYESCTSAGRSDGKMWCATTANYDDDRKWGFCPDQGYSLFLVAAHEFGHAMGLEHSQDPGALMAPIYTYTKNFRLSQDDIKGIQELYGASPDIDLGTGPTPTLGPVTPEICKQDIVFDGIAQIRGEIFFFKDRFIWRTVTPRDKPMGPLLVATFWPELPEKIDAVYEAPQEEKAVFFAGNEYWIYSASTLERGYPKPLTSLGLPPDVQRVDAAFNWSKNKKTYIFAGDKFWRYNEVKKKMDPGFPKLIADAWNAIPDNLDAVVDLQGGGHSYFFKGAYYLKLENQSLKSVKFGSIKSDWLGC

[2] = Half-life was determined in monkey after 3 mg/kg of i.v. dose; format: ADME, organism-based; parameters: dose 3 mg/kg, route intravenous; conditions: cercopithecidae, in vivo, iv
[3] = molecular target: Matrix metalloproteinase-9 (Homo sapiens, UniProt P14780); experiment: Inhibition of matrix metalloprotease-9
Chain of Matrix metalloproteinase-9 (P14780 whole entry): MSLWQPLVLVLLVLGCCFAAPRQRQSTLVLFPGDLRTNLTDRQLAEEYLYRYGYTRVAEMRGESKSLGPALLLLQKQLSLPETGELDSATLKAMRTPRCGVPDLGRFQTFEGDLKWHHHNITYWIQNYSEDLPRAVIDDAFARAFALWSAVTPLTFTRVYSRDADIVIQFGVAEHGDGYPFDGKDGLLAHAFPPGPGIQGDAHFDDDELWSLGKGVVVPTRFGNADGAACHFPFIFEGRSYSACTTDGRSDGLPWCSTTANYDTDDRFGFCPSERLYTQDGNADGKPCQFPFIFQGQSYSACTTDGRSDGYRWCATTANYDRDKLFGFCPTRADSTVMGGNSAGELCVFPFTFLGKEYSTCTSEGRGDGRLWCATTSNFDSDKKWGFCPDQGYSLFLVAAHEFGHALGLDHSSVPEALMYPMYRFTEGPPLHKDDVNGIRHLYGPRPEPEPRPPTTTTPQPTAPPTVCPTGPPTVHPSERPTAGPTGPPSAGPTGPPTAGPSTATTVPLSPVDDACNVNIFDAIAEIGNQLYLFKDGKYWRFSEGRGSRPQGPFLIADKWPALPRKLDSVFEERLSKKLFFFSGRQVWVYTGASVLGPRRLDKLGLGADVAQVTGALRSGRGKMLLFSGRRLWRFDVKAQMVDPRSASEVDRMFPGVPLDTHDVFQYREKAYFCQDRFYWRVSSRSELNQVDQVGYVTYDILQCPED

[4] = Volume of distribution was determined in rat after a 3 mg/kg of iv dose; format: ADME, organism-based; parameters: dose 3 mg/kg, route intravenous; conditions: in vivo, read-out: V
[5] = Half-life was determined in dog after a3 mg/kg of iv dose; format: ADME, organism-based, Canis lupus familiaris; conditions: in vivo, 3 mg/kg
[6] = Absolute bioavailability was evaluated in monkey; format: ADME, organism-based; conditions: cercopithecidae, in vivo
[7] = Absolute bioavailability was evaluated in dog; format: ADME, organism-based, Canis lupus familiaris; conditions: in vivo
[8] = Plasma clearance value was determined in monkey after a 3 mg/kg of iv dose; format: ADME, organism-based; parameters: dose 3 mg/kg, route intravenous; conditions: cercopithecidae, in vivo
[9] = Absolute bioavailability was evaluated in rat; format: ADME, organism-based; conditions: in vivo
Mus musculus = experiment: Increase in life span corresponding to 6.5 day delay to 1 g tumor weight at 100 mg/kg of oral dose in mice; format: functional; conditions: 156 h
[10] = Volume of distribution was determined in monkey after a 3 mg/kg of iv dose; format: ADME, organism-based; parameters: dose 3 mg/kg, route intravenous; conditions: cercopithecidae, in vivo, read-out: V
[11] = Area under curve was determined in monkey after a 3 mg/kg of oral dose; format: ADME, organism-based; parameters: dose 3 mg/kg, route oral; conditions: cercopithecidae, in vivo
B16 = experiment: Maximal effective dose against growth of B16 melanoma cells implanted subcutaneously in flank of mice; format: functional, Mus musculus
[12] = Area under curve was determined in dog after a 3 mg/kg of oral dose; format: ADME, organism-based, Canis lupus familiaris; parameters: dose 3 mg/kg, route oral; conditions: in vivo
Canis familiaris = experiment: Plasma clearance value was determined in dog after a 3 mg/kg of iv dose; format: ADME, organism-based, Canis lupus familiaris; parameters: dose 3 mg/kg, route intravenous; conditions: in vivo
[13] = Volume of distribution was determined in dog after a 3 mg/kg of iv dose; format: ADME, organism-based, Canis lupus familiaris; parameters: dose 3 mg/kg, route intravenous; conditions: in vivo, read-out: V
[14] = Area under curve was determined in rat after a 3 mg/kg of oral dose; format: ADME, organism-based; parameters: dose 3 mg/kg, route oral; conditions: in vivo
Matrilysin = molecular target: T2, Matrilysin (Homo sapiens, UniProt P09237); experiment: Inhibition of Matrix metalloprotease-7
T2 sequence (P09237 whole entry): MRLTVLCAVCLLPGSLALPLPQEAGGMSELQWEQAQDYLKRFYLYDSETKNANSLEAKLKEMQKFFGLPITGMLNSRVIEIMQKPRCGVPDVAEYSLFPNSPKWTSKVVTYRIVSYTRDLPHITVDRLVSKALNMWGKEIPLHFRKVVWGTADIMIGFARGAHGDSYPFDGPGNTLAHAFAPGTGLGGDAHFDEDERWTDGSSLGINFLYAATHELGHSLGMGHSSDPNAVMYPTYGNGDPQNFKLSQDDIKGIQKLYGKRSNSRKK

Rattus norvegicus = experiment: Plasma clearance value was determined in rat after a 3 mg/kg of iv dose; format: ADME, organism-based; parameters: dose 3 mg/kg, route intravenous; conditions: in vivo
Stromelysin-1 = Stromelysin-1 (Homo sapiens, UniProt P08254); experiment: Inhibition of Matrix metalloprotease-3
Chain of Stromelysin-1 (P08254 whole entry): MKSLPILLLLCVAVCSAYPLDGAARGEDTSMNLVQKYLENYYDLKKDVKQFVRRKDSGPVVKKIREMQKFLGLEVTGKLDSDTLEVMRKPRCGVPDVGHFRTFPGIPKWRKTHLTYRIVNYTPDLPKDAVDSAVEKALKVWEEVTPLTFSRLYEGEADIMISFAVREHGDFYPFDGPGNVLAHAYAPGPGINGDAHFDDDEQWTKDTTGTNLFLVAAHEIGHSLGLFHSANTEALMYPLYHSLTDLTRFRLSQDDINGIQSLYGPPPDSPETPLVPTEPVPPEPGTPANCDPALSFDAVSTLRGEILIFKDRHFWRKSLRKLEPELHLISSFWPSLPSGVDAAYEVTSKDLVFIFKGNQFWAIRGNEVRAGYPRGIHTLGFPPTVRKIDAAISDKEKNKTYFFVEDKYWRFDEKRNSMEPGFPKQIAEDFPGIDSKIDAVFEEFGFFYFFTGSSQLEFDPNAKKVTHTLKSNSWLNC

SMILES	IC50 (Interstitial collagenase) [nM]	IC50 [1] [nM]	other results
CN1C(=O)N(CC(COc2ccc(-c3cccc(C#N)c3)cc2)N(O)C=O)C(=O)C1(C)C (stereo not drawn)	> 10000	1300	–
CN1C(=O)N(CC(COc2ccc(-c3ccccc3)cc2)N(O)C=O)C(=O)C1(C)C (stereo not drawn)	1100	89	–
CC1(C)NC(=O)N(C[C@@H](COc2ccc(-c3ccc(OC(F)(F)F)cc3)cc2)N(O)C=O)C1=O	4600	4	IC50 [3]: 120 nM; Vd [4]: 1.2 L/kg; half-life [5]: 9 h; bioavailability [6]: 95%; bioavailability [7]: 83%; Clp [8]: 1.13 mL/min/kg; bioavailability [9]: 93%; ILS at 100 mg/kg (Mus musculus): 46%; Vd [10]: 1.2 L/kg; AUC [11]: 43000 ng·h/mL; Effective dose (B16): 300 mg/kg; AUC [12]: 23000 ng·h/mL; Clp (Canis familiaris): 1.83 mL/min/kg; Vd [13]: 0.9 L/kg; AUC [14]: 24000 ng·h/mL; IC50 (Matrilysin): > 10000 nM; Clp (Rattus norvegicus): 2 mL/min/kg; T1/2 [2]: 8 h and 21 h; IC50 (Stromelysin-1): 42 nM
CCCCCOc1ccc(-c2ccc(OCC(CN3C(=O)NC(C)(C)C3=O)N(O)C=O)cc2)cc1 (stereo not drawn)	> 10000	26	–
COCCOc1ccc(-c2ccc(OCC(CN3C(=O)NC(C)(C)C3=O)N(O)C=O)cc2)cc1 (stereo not drawn)	> 10000	4	half-life [2]: 1 h
CN1C(=O)N(CC(COc2ccc(-c3ccco3)cc2)N(O)C=O)C(=O)C1(C)C (stereo not drawn)	1600	85	–
Cc1ccc(-c2ccc(OCC(CN3C(=O)N(C)C(C)(C)C3=O)N(O)C=O)cc2)cc1 (stereo not drawn)	1600	20	–
C=Cc1ccc(-c2ccc(OCC(CN3C(=O)N(C)C(C)(C)C3=O)N(O)C=O)cc2)cc1 (stereo not drawn)	> 10000	61	–
CN1C(=O)N(CC(COc2ccc(-c3cccnc3)cc2)N(O)C=O)C(=O)C1(C)C (stereo not drawn)	> 10000	> 10000	–
CN1C(=O)N(CC(COc2cccc(-c3ccc(C#N)cc3)c2)N(O)C=O)C(=O)C1(C)C (stereo not drawn)	> 10000	> 10000	–
CN1C(=O)N(CC(COc2ccc(-c3cccs3)cc2)N(O)C=O)C(=O)C1(C)C (stereo not drawn)	3600	130	–
CN1C(=O)N(CC(COc2ccc(-c3ccc(C#N)cc3)cc2)N(O)C=O)C(=O)C1(C)C (stereo not drawn)	–	58	–
COc1ccc(-c2ccc(OCC(CN3C(=O)N(C)C(C)(C)C3=O)N(O)C=O)cc2)cc1 (stereo not drawn)	–	4	–

Now from value to compound, other results behind:

IC50 (Interstitial collagenase) [nM]	IC50 [1] [nM]	SMILES	other results
840	20	CC1(C)NC(=O)N(CC(COc2ccc(-c3ccc(C(F)(F)F)cc3)cc2)N(O)C=O)C1=O (stereo not drawn)	–
> 10000	4	CCCOc1ccc(-c2ccc(OCC(CN3C(=O)NC(C)(C)C3=O)N(O)C=O)cc2)cc1 (stereo not drawn)	half-life [2]: 1 h
8600	6	CC1(C)NC(=O)N(CC(COc2ccc(-c3ccc(OC(F)(F)F)cc3)cc2)N(O)C=O)C1=O (stereo not drawn)	half-life [2]: 20 h
> 10000	16	CCCCc1ccc(-c2ccc(OCC(CN3C(=O)NC(C)(C)C3=O)N(O)C=O)cc2)cc1 (stereo not drawn)	half-life [2]: 1 h
2100	8	CC1(C)NC(=O)N(CC(COc2ccc(-c3ccc(C#N)cc3)cc2)N(O)C=O)C1=O (stereo not drawn)	half-life [2]: 8 h
4900	48	CC1(C)NC(=O)N(CC(COc2ccc(-c3ccc(S(C)(=O)=O)cc3)cc2)N(O)C=O)C1=O (stereo not drawn)	half-life [2]: 5 h
> 10000	180	CC1(C)NC(=O)N(C[C@H](COc2ccc(-c3ccc(OC(F)(F)F)cc3)cc2)N(O)C=O)C1=O	IC50 [3]: 1200 nM; IC50 (Matrilysin): > 10000 nM; IC50 (Stromelysin-1): 3100 nM
1000	1	CCOc1ccc(-c2ccc(OCC(CN3C(=O)NC(C)(C)C3=O)N(O)C=O)cc2)cc1 (stereo not drawn)	–

— ChEMBL document CHEMBL1134096, “Discovery and characterization of the potent, selective and orally bioavailable MMP inhibitor ABT-770” (Bioorg Med Chem Lett, 2001)
